In patent publication US6441021B1, “Sulfonated amino acid derivatives and metalloproteinase inhibitors containing the same” (Shionogi & Co., Ltd., priority 1996, dated 2002):

Target: T1, MMP-9 (92 kDa, gelatinase B; type IV collagenase) (Homo sapiens, UniProt P14780)
T1 construct: endogenous in cells; enzyme purified from the conditioned medium
Test: Assay of type IV collagenase inhibitors: activated MMP-9 with type IV collagenase activity kit substrate, fluorescent intensity
Assay type: biochemical
Conditions: not given
Description: (1) Isolation and Purification of MMP-9 (92 kDa, Gelatinase B)
Type IV collagenase (MMP-9) was purified according to the methods descrived in the following literature.
Subsequently, activated MMP-9 was obtained by treating the pro-MMP-9 with trypsin.
(2) Assay Methods of Type IV Collagenase Inhibitors
Collagenase assay was performed using the activated MMP-9 described above and the substrate supplied in the type IV collagenase activity kit (YAGAI, inc.), according to the manufacturer's protocol. The following 4 assays are performed per compound (inhibitor).
(A) substrate (type IV collagenase), enzyme (MMP-9), inhibitor
(B) substrate (type IV collagenase), inhibitor
(C) substrate (type IV collagenase), enzyme (MMP-9)
(D) substrate (type IV collagenase)
According to the manufacturer's protocol, fluorescent intensity was measured and percent inhibition was determined by the following equation.
Inhibition (%)={1−(A−B)/(C−D)}×100

T1 sequence (P14780 107-707 limits assumed): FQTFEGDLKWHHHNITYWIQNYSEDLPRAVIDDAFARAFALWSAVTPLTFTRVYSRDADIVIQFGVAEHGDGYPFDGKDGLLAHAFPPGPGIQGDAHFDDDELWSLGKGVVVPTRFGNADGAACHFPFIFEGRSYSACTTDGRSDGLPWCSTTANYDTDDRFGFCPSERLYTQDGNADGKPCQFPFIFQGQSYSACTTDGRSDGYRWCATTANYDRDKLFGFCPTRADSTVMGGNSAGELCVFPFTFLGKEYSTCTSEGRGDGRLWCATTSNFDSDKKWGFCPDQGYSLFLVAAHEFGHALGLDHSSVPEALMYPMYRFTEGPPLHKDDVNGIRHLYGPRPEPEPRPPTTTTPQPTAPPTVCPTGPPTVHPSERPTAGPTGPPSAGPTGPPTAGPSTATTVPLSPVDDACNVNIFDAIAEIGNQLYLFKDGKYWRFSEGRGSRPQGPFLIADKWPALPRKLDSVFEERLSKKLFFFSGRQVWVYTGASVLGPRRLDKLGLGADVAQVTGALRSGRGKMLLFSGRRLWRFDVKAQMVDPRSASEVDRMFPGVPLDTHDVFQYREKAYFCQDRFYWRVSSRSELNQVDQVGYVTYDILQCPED

| IC50 [nM] | Structure (SMILES) |
| --- | --- |
| 5.9 | Cc1ccc(C(=O)Nc2ccc(S(=O)(=O)N[C@H](Cc3c[nH]c4ccccc34)C(=O)O)cc2)cc1 [Example 182] |
| 574 | O=Cn1cc(C[C@@H](NS(=O)(=O)c2ccc(-c3nnn(-c4ccccc4)n3)cc2)C(=O)O)c2ccccc21 [Example 219] |
| 106 | O=C(O)[C@@H](Cc1ccccc1)NS(=O)(=O)c1ccc(-c2nnn(-c3ccc(Br)cc3)n2)cc1 [Example 228] |
| 173 | COc1ccc(C(=O)Nc2ccc(S(=O)(=O)N[C@@H](C(=O)O)C(C)(C)C)cc2)cc1 [Example 203] |

Same assay, conditions: activated MMP-9, type IV collagenase activity kit substrate, fluorescent intensity; concentration at which percent inhibition reaches 50%

| IC50 [nM] | Structure (SMILES) |
| --- | --- |
| 0.39 | CC(C)[C@@H](NS(=O)(=O)c1ccc(Oc2ccccc2)cc1)C(=O)NO [Example 1b-1-63] |
| 39.8 | CSc1ccc(-c2ccc(S(=O)(=O)N[C@@H](C(=O)O)C(C)C)cc2)cc1 [Example 1a-1-55] |

Same assay, conditions: inhibition of type IV collagenase (MMP-9), concentration at which percent inhibition reaches 50%

| IC50 [nM] | Structure (SMILES) |
| --- | --- |
| 4440 | O=C(Nc1ccc(S(=O)(=O)N[C@H](Cc2ccccc2)C(=O)O)cc1)c1ccncc1 [Example 205] |
| 14 | CSc1ccc(-c2ccc(S(=O)(=O)N[C@@H](C(=O)O)C(C)C)s2)cc1 [Example 1a-3-9] |
| 69.9 | O=C(O)[C@@H](Cc1c[nH]c2ccccc12)NS(=O)(=O)c1ccc(C#Cc2ccc([N+](=O)[O-])cc2)cc1 [Example 1a-2-7] |

System: not given
Test: not given
Conditions: not given

| melting point [°C] | Structure (SMILES) |
| --- | --- |
| 194 to 195 | CSc1ccc(-n2nnc(-c3ccc(S(=O)(=O)N[C@@H](C(=O)O)C(C)C)cc3)n2)cc1 (hydrate or solvate) [Example 245] |
| 225 to 227 | O=C(O)[C@@H](Cc1ccccc1)NS(=O)(=O)c1ccc(-c2nnn(-c3ccc(C4CCCCC4)cc3)n2)cc1 (hydrate or solvate) [Example 237] |
| 111 to 114 | O=Cn1cc(C[C@@H](NS(=O)(=O)c2ccc(-c3nnn(-c4ccccc4)n3)cc2)C(=O)O)c2ccccc21 (hydrate or solvate) [Example 219] |
| 190 to 192 | N#Cc1ccc(-n2nnc(-c3ccc(S(=O)(=O)N[C@H](Cc4ccccc4)C(=O)O)cc3)n2)cc1 (hydrate or solvate) [Example 235] |
| 204 to 206 | O=C(O)[C@@H](Cc1ccccc1)NS(=O)(=O)c1ccc(-c2nnn(-c3ccc(Cl)cc3)n2)cc1 (hydrate or solvate) [Example 232] |
| 204 to 207 | CCC(C)[C@@H](NS(=O)(=O)c1ccc(-c2nnn(-c3ccc(OC)cc3)n2)cc1)C(=O)O (some centres unmarked) (hydrate or solvate) [Example 222] |
| 205 to 207 | O=C(O)[C@@H](Cc1c[nH]c2ccccc12)NS(=O)(=O)c1ccc(-c2nnn(-c3ccc(Br)cc3)n2)cc1 (hydrate or solvate) [Example 240] |
| 208 to 209 | CC(C)[C@@H](NS(=O)(=O)c1ccc(-c2nnn(-c3ccc(F)cc3)n2)cc1)C(=O)O (hydrate or solvate) [Example 243] |
| 227 to 228 | CC(C)[C@@H](NS(=O)(=O)c1ccc(-c2nnn(-c3ccc(Br)cc3)n2)cc1)C(=O)O (hydrate or solvate) [Example 225] |
| 195 to 196 | COc1ccc(-n2nnc(-c3ccc(S(=O)(=O)N[C@H](Cc4c[nH]c5ccccc45)C(=O)O)cc3)n2)cc1 [Example 220] |
| 206 to 207 | Cc1ccc(-n2nnc(-c3ccc(S(=O)(=O)N[C@@H](C(=O)O)C(C)C)cc3)n2)cc1 (hydrate or solvate) [Example 242] |
| 214 to 216 | COc1ccc(-n2nnc(-c3ccc(S(=O)(=O)N[C@H](Cc4ccccc4)C(=O)O)cc3)n2)cc1 (hydrate or solvate) [Example 234] |
| 199 to 201 | Cc1ccc(-n2nnc(-c3ccc(S(=O)(=O)N[C@H](Cc4c[nH]c5ccccc45)C(=O)O)cc3)n2)cc1 (hydrate or solvate) [Example 241] |
| 190 to 191 | O=C(O)[C@@H](Cc1ccccc1)NS(=O)(=O)c1ccc(-c2nnn(-c3ccc([N+](=O)[O-])cc3)n2)cc1 (hydrate or solvate) [Example 230] |
| 213 to 216 | CSc1ccc(-n2nnc(-c3ccc(S(=O)(=O)N[C@H](Cc4c[nH]c5ccccc45)C(=O)O)cc3)n2)cc1 (hydrate or solvate) [Example 247] |
| 222 to 224 | CSc1ccc(-n2nnc(-c3ccc(S(=O)(=O)N[C@H](Cc4ccccc4)C(=O)O)cc3)n2)cc1 (hydrate or solvate) [Example 246] |
| 205 to 207 | O=C(O)[C@@H](Cc1ccccc1)NS(=O)(=O)c1ccc(-c2nnn(-c3ccc(F)cc3)n2)cc1 (hydrate or solvate) [Example 231] |
| 226 to 227 | Cc1ccc(-n2nnc(-c3ccc(S(=O)(=O)N[C@H](Cc4ccccc4)C(=O)O)cc3)n2)cc1 (hydrate or solvate) [Example 233] |

Further lines, the compound ahead of its results:

| Structure (SMILES) | melting point [°C] |
| --- | --- |
| O=C(Nc1ccc(S(=O)(=O)N[C@H](Cc2c[nH]c3ccccc23)C(=O)O)cc1)c1ccc(Br)cc1 (hydrate or solvate) [Example 183] | 215 to 218 |
| CC(C)[C@@H](NS(=O)(=O)c1ccc(NC(=O)c2ccc(-c3ccccc3)cc2)cc1)C(=O)O (hydrate or solvate) [Example 195] | 254 to 256 |
| COc1ccc(C(=O)Nc2ccc(S(=O)(=O)N[C@@H](C(=O)O)C(C)C)cc2)cc1 (hydrate or solvate) [Example 200] | 220 to 221 |
| Cc1ccc(C(=O)Nc2ccc(S(=O)(=O)N[C@H](Cc3c[nH]c4ccccc34)C(=O)O)cc2)cc1 (hydrate or solvate) [Example 182] | 240 to 244 |
| O=C(Nc1ccc(S(=O)(=O)N[C@H](Cc2c[nH]c3ccccc23)C(=O)O)cc1)c1ccc([N+](=O)[O-])cc1 (hydrate or solvate) [Example 180] | 211 to 213 |
| O=C(O)C(Cc1cccc2ccccc12)NS(=O)(=O)c1ccc(-c2nnn(-c3ccccc3)n2)cc1 (centres unmarked) (hydrate or solvate) [Example 218] | 225 to 227 |
| COc1ccc(C(=O)Nc2ccc(S(=O)(=O)N[C@H](Cc3c[nH]c4ccccc34)C(=O)O)cc2)cc1 (hydrate or solvate) [Example 178] | 233 to 234 |
| CN(C)c1ccc(C(=O)Nc2ccc(S(=O)(=O)N[C@H](Cc3c[nH]c4ccccc34)C(=O)O)cc2)cc1 (hydrate or solvate) [Example 181] | 236 to 238 |
| Cc1ccc(C(=O)Nc2ccc(S(=O)(=O)N[C@@H](C(=O)O)C(C)C)cc2)cc1 (hydrate or solvate) [Example 196] | 227 to 229 |
| COc1ccc(C(=O)Nc2ccc(S(=O)(=O)N[C@@H](C(=O)O)C(C)(C)C)cc2)cc1 (hydrate or solvate) [Example 203] | 214 to 216 |
| CSc1ccc(C(=O)Nc2ccc(S(=O)(=O)N[C@H](Cc3c[nH]c4ccccc34)C(=O)O)cc2)cc1 (hydrate or solvate) [Example 184] | 244 to 249 |
| CC(C)[C@@H](NS(=O)(=O)c1ccc(NC(=O)c2ccc([N+](=O)[O-])cc2)cc1)C(=O)O (hydrate or solvate) [Example 201] | 240 to 242 |
| O=C(Nc1ccc(S(=O)(=O)N[C@H](Cc2c[nH]c3ccccc23)C(=O)O)cc1)c1ccc(F)cc1 (hydrate or solvate) [Example 185] | 170 to 175 |
| CC(C)[C@@H](NS(=O)(=O)c1ccc(NC(=O)c2ccccc2)cc1)C(=O)O (hydrate or solvate) [Example 199] | 226 to 227 |
